Test results reported in ChEMBL document CHEMBL3046063, “Synthesis and antimicrobial activity of 5-chloroindoline-2,3-dione derivatives” (2012).
Values after ≈ are worked out from the molar mass of the structure shown.

What was measured:
Format in all cases: functional
[1] = test system: Staphylococcus hominis; test: Antimicrobial activity against Staphylococcus hominis ATCC 27844 after 24 hr by broth dilution method; conditions: ATCC 27844, 24 h
[2] = test system: Escherichia coli; test: Antimicrobial activity against Escherichia coli ATCC 25922 after 24 hr by broth dilution method; conditions: ATCC 25922, 24 h
[3] = test system: Candida albicans; test: Antimicrobial activity against Candida albicans ATCC 10231 after 24 hr by broth dilution method; conditions: ATCC 10231, 24 h
[4] = test system: Rhizoctonia solani; test: Antimicrobial activity against Rhizoctonia solani ATCC 76131 after 24 hr by broth dilution method; conditions: ATCC 76131, 24 h
[5] = test system: Staphylococcus epidermidis; test: Antimicrobial activity against Staphylococcus epidermidis ATCC 12228 after 24 hr by broth dilution method; conditions: ATCC 12228, 24 h
[6] = test system: Klebsiella pneumoniae; test: Antimicrobial activity against Klebsiella pneumoniae ATCC 13883 after 24 hr by broth dilution method; conditions: ATCC 13883, 24 h
[7] = test system: Bacillus cereus; test: Antimicrobial activity against Bacillus cereus ATCC 11778 after 24 hr by broth dilution method; conditions: ATCC 11778, 24 h
[8] = test system: Pseudomonas aeruginosa; test: Antimicrobial activity against Pseudomonas aeruginosa ATCC 10145 after 24 hr by broth dilution method; conditions: ATCC 10145, 24 h
[9] = test system: Trichophyton longifusum; test: Antimicrobial activity against Trichophyton longifusum ATCC 22397 after 24 hr by broth dilution method; conditions: ATCC 22397, 24 h
[10] = test system: Proteus vulgaris; test: Antimicrobial activity against Proteus vulgaris ATCC 13315 after 24 hr by broth dilution method; conditions: ATCC 13315, 24 h
[11] = test system: Aspergillus fumigatus; test: Antimicrobial activity against Aspergillus fumigatus after 24 hr by broth dilution method
[12] = test system: Proteus mirabilis; test: Antimicrobial activity against Proteus mirabilis ATCC 49565 after 24 hr by broth dilution method; conditions: ATCC 49565, 24 h
[13] = test system: Aspergillus flavus; test: Antimicrobial activity against Aspergillus flavus ATCC 15517 after 24 hr by broth dilution method; conditions: ATCC 15517, 24 h
[14] = test system: Bacillus spizizenii; test: Antimicrobial activity against Bacillus subtilis subsp. spizizenii ATCC 6633 after 24 hr by broth dilution method; conditions: ATCC 6633, 24 h
[15] = test system: Bacillus pumilus; test: Antimicrobial activity against Bacillus pumilus ATCC 14884 after 24 hr by broth dilution method; conditions: ATCC 14884, 24 h
[16] = test system: Salmonella typhi; test: Antimicrobial activity against Salmonella enterica subsp. enterica serovar Typhi ATCC 19430 after 24 hr by broth dilution method; conditions: ATCC 19430, 24 h
[17] = test system: Microsporum canis; test: Antimicrobial activity against Arthroderma otae ATCC 11622 after 24 hr by broth dilution method; conditions: ATCC 11622, 24 h
[18] = test system: Fusarium solani; test: Antimicrobial activity against Fusarium solani ATCC 38136 after 24 hr by broth dilution method; conditions: ATCC 38136, 24 h
[19] = test system: Aspergillus niger; test: Antimicrobial activity against Aspergillus niger ATCC 9142 after 24 hr by broth dilution method; conditions: ATCC 9142, 24 h
[20] = test system: Alternaria alternata; test: Antimicrobial activity against Alternaria alternata ATCC 66868 after 24 hr by broth dilution method; conditions: ATCC 66868, 24 h
[21] = test system: Micrococcus luteus; test: Antimicrobial activity against Micrococcus luteus ATCC 4698 after 24 hr by broth dilution method; conditions: ATCC 4698, 24 h
[22] = test system: Staphylococcus aureus; test: Antimicrobial activity against Staphylococcus aureus ATCC 25923 after 24 hr by broth dilution method; conditions: ATCC 25923, 24 h
[23] = test system: Aspergillus awamori; test: Antimicrobial activity against Aspergillus awamori ATCC 22342 after 24 hr by broth dilution method; conditions: ATCC 22342, 24 h
[24] = test system: Trichoderma viride; test: Antimicrobial activity against Hypocrea rufa ATCC 52440 after 24 hr by broth dilution method; conditions: ATCC 52440, 24 h

O=C1Nc2ccc(Cl)cc2/C1=N/N1C(=O)C(Cl)C1c1ccc(F)cc1 (stereo not given)
MIC [1]: 9.37 µg/mL (≈ 24.8 µM)
MIC [2]: 18.8 µg/mL (≈ 49.6 µM)
MIC [3]: 4.68 µg/mL (≈ 12.4 µM)
MIC [4]: 9.37 µg/mL (≈ 24.8 µM)
MIC [5]: 18.8 µg/mL (≈ 49.6 µM)
MIC [6]: 18.8 µg/mL (≈ 49.6 µM)
MIC [7]: 18.8 µg/mL (≈ 49.6 µM)
MIC [8]: 18.8 µg/mL (≈ 49.6 µM)
MIC [9]: 9.37 µg/mL (≈ 24.8 µM)
MIC [10]: 18.8 µg/mL (≈ 49.6 µM)
MIC [11]: 9.37 µg/mL (≈ 24.8 µM)
MIC [12]: 9.37 µg/mL (≈ 24.8 µM)
MIC [13]: 4.68 µg/mL (≈ 12.4 µM)
MIC [14]: 9.37 µg/mL (≈ 24.8 µM)
MIC [15]: 18.8 µg/mL (≈ 49.6 µM)
MIC [16]: 9.37 µg/mL (≈ 24.8 µM)
MIC [17]: 9.37 µg/mL (≈ 24.8 µM)
MIC [18]: 9.37 µg/mL (≈ 24.8 µM)
MIC [19]: 4.68 µg/mL (≈ 12.4 µM)
MIC [20]: 4.68 µg/mL (≈ 12.4 µM)
MIC [21]: 18.8 µg/mL (≈ 49.6 µM)
MIC [22]: 18.8 µg/mL (≈ 49.6 µM)
MIC [23]: 4.68 µg/mL (≈ 12.4 µM)
MIC [24]: 9.37 µg/mL (≈ 24.8 µM)

COc1ccc(C2SCC(=O)N2/N=C2\C(=O)Nc3ccc(Cl)cc32)cc1 (stereo not given)
MIC [1]: 18.8 µg/mL (≈ 48.3 µM)
MIC [2]: 18.8 µg/mL (≈ 48.3 µM)
MIC [3]: 4.68 µg/mL (≈ 12.1 µM)
MIC [4]: 9.37 µg/mL (≈ 24.2 µM)
MIC [5]: 9.37 µg/mL (≈ 24.2 µM)
MIC [6]: 9.37 µg/mL (≈ 24.2 µM)
MIC [7]: 18.8 µg/mL (≈ 48.3 µM)
MIC [8]: 18.8 µg/mL (≈ 48.3 µM)
MIC [9]: 4.68 µg/mL (≈ 12.1 µM)
MIC [10]: 37.5 µg/mL (≈ 96.7 µM)
MIC [11]: 4.68 µg/mL (≈ 12.1 µM)
MIC [12]: 9.37 µg/mL (≈ 24.2 µM)
MIC [13]: 9.37 µg/mL (≈ 24.2 µM)
MIC [14]: 9.37 µg/mL (≈ 24.2 µM)
MIC [15]: 18.8 µg/mL (≈ 48.3 µM)
MIC [16]: 9.37 µg/mL (≈ 24.2 µM)
MIC [17]: 9.37 µg/mL (≈ 24.2 µM)
MIC [18]: 4.68 µg/mL (≈ 12.1 µM)
MIC [19]: 4.68 µg/mL (≈ 12.1 µM)
MIC [20]: 9.37 µg/mL (≈ 24.2 µM)
MIC [21]: 18.8 µg/mL (≈ 48.3 µM)
MIC [22]: 18.8 µg/mL (≈ 48.3 µM)
MIC [23]: 4.68 µg/mL (≈ 12.1 µM)
MIC [24]: 4.68 µg/mL (≈ 12.1 µM)

O=C1Nc2ccc(Cl)cc2/C1=N/N1C(=O)CSC1c1ccc(F)cc1 (stereo not given)
MIC [1]: 9.37 µg/mL (≈ 24.9 µM)
MIC [2]: 18.8 µg/mL (≈ 49.9 µM)
MIC [3]: 9.37 µg/mL (≈ 24.9 µM)
MIC [4]: 4.68 µg/mL (≈ 12.5 µM)
MIC [5]: 9.37 µg/mL (≈ 24.9 µM)
MIC [6]: 18.8 µg/mL (≈ 49.9 µM)
MIC [7]: 9.37 µg/mL (≈ 24.9 µM)
MIC [8]: 9.37 µg/mL (≈ 24.9 µM)
MIC [9]: 4.68 µg/mL (≈ 12.5 µM)
MIC [10]: 18.8 µg/mL (≈ 49.9 µM)
MIC [11]: 4.68 µg/mL (≈ 12.5 µM)
MIC [12]: 18.8 µg/mL (≈ 49.9 µM)
MIC [13]: 9.37 µg/mL (≈ 24.9 µM)
MIC [14]: 18.8 µg/mL (≈ 49.9 µM)
MIC [15]: 9.37 µg/mL (≈ 24.9 µM)
MIC [16]: 9.37 µg/mL (≈ 24.9 µM)
MIC [17]: 9.37 µg/mL (≈ 24.9 µM)
MIC [18]: 4.68 µg/mL (≈ 12.5 µM)
MIC [19]: 9.37 µg/mL (≈ 24.9 µM)
MIC [20]: 9.37 µg/mL (≈ 24.9 µM)
MIC [21]: 18.8 µg/mL (≈ 49.9 µM)
MIC [22]: 18.8 µg/mL (≈ 49.9 µM)
MIC [23]: 9.37 µg/mL (≈ 24.9 µM)
MIC [24]: 4.68 µg/mL (≈ 12.5 µM)

O=C1Nc2ccc(Cl)cc2/C1=N/N1C(=O)CSC1c1ccccc1 (stereo not given)
MIC [1]: 75 µg/mL (≈ 210 µM)
MIC [2]: 37.5 µg/mL (≈ 105 µM)
MIC [3]: 9.37 µg/mL (≈ 26.2 µM)
MIC [4]: 37.5 µg/mL (≈ 105 µM)
MIC [5]: 37.5 µg/mL (≈ 105 µM)
MIC [6]: 37.5 µg/mL (≈ 105 µM)
MIC [7]: 37.5 µg/mL (≈ 105 µM)
MIC [8]: 37.5 µg/mL (≈ 105 µM)
MIC [9]: 18.8 µg/mL (≈ 52.4 µM)
MIC [10]: 75 µg/mL (≈ 210 µM)
MIC [11]: 18.8 µg/mL (≈ 52.4 µM)
MIC [12]: 75 µg/mL (≈ 210 µM)
MIC [13]: 37.5 µg/mL (≈ 105 µM)
MIC [14]: 75 µg/mL (≈ 210 µM)
MIC [15]: 75 µg/mL (≈ 210 µM)
MIC [16]: 75 µg/mL (≈ 210 µM)
MIC [17]: 37.5 µg/mL (≈ 105 µM)
MIC [18]: 18.8 µg/mL (≈ 52.4 µM)
MIC [19]: 18.8 µg/mL (≈ 52.4 µM)
MIC [20]: 37.5 µg/mL (≈ 105 µM)
MIC [21]: 37.5 µg/mL (≈ 105 µM)
MIC [22]: 37.5 µg/mL (≈ 105 µM)
MIC [23]: 18.8 µg/mL (≈ 52.4 µM)
MIC [24]: 37.5 µg/mL (≈ 105 µM)

O=C1Nc2ccc(Cl)cc2/C1=N/N1C(=O)CSC1c1ccccc1Cl (stereo not given)
MIC [1]: 150 µg/mL (≈ 382 µM)
MIC [2]: 150 µg/mL (≈ 382 µM)
MIC [3]: 150 µg/mL (≈ 382 µM)
MIC [4]: 75 µg/mL (≈ 191 µM)
MIC [5]: 150 µg/mL (≈ 382 µM)
MIC [6]: 150 µg/mL (≈ 382 µM)
MIC [7]: 150 µg/mL (≈ 382 µM)
MIC [8]: 150 µg/mL (≈ 382 µM)
MIC [9]: 150 µg/mL (≈ 382 µM)
MIC [10]: 300 µg/mL (≈ 765 µM)
MIC [11]: 150 µg/mL (≈ 382 µM)
MIC [12]: 300 µg/mL (≈ 765 µM)
MIC [13]: 150 µg/mL (≈ 382 µM)
MIC [14]: 300 µg/mL (≈ 765 µM)
MIC [15]: 150 µg/mL (≈ 382 µM)
MIC [16]: 150 µg/mL (≈ 382 µM)
MIC [17]: 75 µg/mL (≈ 191 µM)
MIC [18]: 150 µg/mL (≈ 382 µM)
MIC [19]: 75 µg/mL (≈ 191 µM)
MIC [20]: 150 µg/mL (≈ 382 µM)
MIC [21]: 300 µg/mL (≈ 765 µM)
MIC [22]: 300 µg/mL (≈ 765 µM)
MIC [23]: 150 µg/mL (≈ 382 µM)
MIC [24]: 75 µg/mL (≈ 191 µM)
